{
  "source": "patent US20210077514A1",
  "about": "“Nutraceutical Composition for Improving Overall Health” (priority 2019, published 2021)",
  "origin": "cited, not measured here",
  "key": {"[1]": {"system": "photoreceptor", "conditions": "in vivo"}, "[2]": {"conditions": "aged mice, one week's treatment"}, "[3]": {"assay": "not given", "remark": "listed apart in the source"}, "[4]": {"conditions": "in vivo"}, "[5]": {"system": "brain cell"}, "[6]": {"assay": "not given", "remark": "listed apart in the source"}, "[7]": {"conditions": "FXN-KO mouse"}, "[8]": {"conditions": "AD-model mice"}, "[9]": {"conditions": "aged mice"}, "[10]": {"system": "nematodes"}, "[11]": {"conditions": "850 mg twice daily, mean follow-up ~3 years"}, "[12]": {"conditions": "8-10 years after therapy"}, "[13]": {"conditions": "after 3 years"}, "[14]": {"system": "diploid fibroblasts and mesenchymal stem cells"}, "[15]": {"conditions": "type 2 diabetes and mild to moderate depression"}, "[16]": {"assay": "not given", "remark": "listed apart in the source"}, "[17]": {"conditions": "mouse model"}, "[18]": {"system": "leukaemia cells"}, "[19]": {"system": "glial cells"}, "[20]": {"conditions": "young healthy adult female human subjects"}, "[21]": {"conditions": "compared to canthaxanthin and β-carotene"}, "[22]": {"conditions": "spontaneously hypertensive corpulent rats; mice on high fat plus high fructose diets"}, "[23]": {"conditions": "aging mice, long-term treatment"}, "[24]": {"system": "lipid peroxidation", "conditions": "ethanol induced gastric ulcer rats and skin cancer rats; astaxanthin and its esters"}, "[25]": {"conditions": "diabetic mice vs control group"}, "[26]": {"assay": "not given", "remark": "listed apart in the source"}, "[27]": {"conditions": "0.08% astaxanthin fed, vs control group"}, "[28]": {"system": "superoxide dismutase, thioredoxin reductase, paraoxonase", "conditions": "oxidative-induced rabbits, diet supplement"}, "[29]": {"conditions": "from the liver into the bile"}, "[30]": {"system": "adipocytes", "conditions": "mouse, in vivo"}, "[31]": {"system": "senescent cells", "conditions": "H2O2-induced, via activation of AMPK pathway"}, "[32]": {"conditions": "in vivo", "remark": "listed apart in the source"}, "[33]": {"conditions": "chronic heart failure patients"}, "[34]": {"system": "HepG2 cells", "conditions": "HepG2 cells and primary hepatocytes"}, "[35]": {"system": "MCF-7 breast cancer cells"}, "[36]": {"conditions": "patients with T2DM"}},
  "note": "Where two headings read alike, the source gives them in different places.",
  "data": [
    {"compound": "NC(=O)c1ccc[n+]([C@@H]2O[C@H](COP(=O)([O-])O)[C@@H](O)[C@H]2O)c1", "note": "[Nicotinamide Mononucleotide, nicotinamide mononucleotide]", "values": [
      {"measurement": "homeostasis of mitochondria and biochemical markers of muscle-health", "setting": "22 months old mice, to level of six months old mice", "value": "restore the homeostasis of mitochondria"},
      {"measurement": "age-related physiological declines", "setting": "old mice", "value": "reduce the age-related physiological declines"},
      {"measurement": "degeneration of photoreceptor", "setting": "[1]", "value": "prevent degeneration of photoreceptor"},
      {"measurement": "cells after DNA damage repair", "setting": "[2]", "value": "indistinguishable from the cells of the young mice"},
      {"measurement": "intolerance of glucose", "setting": "[3]; in vivo", "value": "reversal of the intolerance of glucose"},
      {"measurement": "levels of NAD+", "setting": "[3]; liver and muscle", "value": "significantly increased"},
      {"measurement": "NAD+ levels within the heart", "setting": "[4]", "value": "increase the NAD+ levels within the heart"},
      {"measurement": "protection of heart from I/R injuries", "setting": "[4]", "value": "protect the heart from injuries of I/R"},
      {"measurement": "death rate of brain cell", "setting": "[5]", "value": "lower the death rate of brain cell"},
      {"measurement": "impaired tolerance of glucose", "setting": "[6]; only one dose", "value": "sufficient in normalizing the impaired tolerance of the glucose"},
      {"measurement": "levels of NAD+", "setting": "[6]; over sixty minutes", "value": "significant rises within the levels of NAD+"},
      {"measurement": "cardiac function", "setting": "[7]", "value": "restored near the normal levels"},
      {"measurement": "cognition", "setting": "[8]", "value": "restore cognition within AD-model mice"},
      {"measurement": "aortic stiffness", "setting": "[9]", "value": "normalizing the aortic stiffness"}
    ]},
    {"compound": "CN(C)C(=N)N=C(N)N", "note": "[metformin]", "values": [
      {"measurement": "lifespan", "setting": "[10]", "value": "extends the lifespan of nematodes"},
      {"measurement": "reduction of incidence of T2DM compared to placebo", "setting": "[11]", "value": 31, "unit": "%"},
      {"measurement": "cognitive function, impact of long-term use", "setting": "[12]", "value": "did not show negative impact"},
      {"measurement": "body weight, LDL-cholesterol, atherosclerosis progression", "setting": "[13]", "value": "reductions in body weight, LDL-cholesterol"},
      {"measurement": "carotid artery intima-media thickness (primary outcome)", "setting": "[13]", "value": "no difference in the primary outcome"},
      {"measurement": "aging in human cells", "setting": "[14]; chronic low-dose treatment", "value": "delays aging in human cells"},
      {"measurement": "expression of GPx7", "setting": "[14]; low-dose treatment, by activating Nrf2", "value": "upregulates the expression of endoplasmic reticulum-localized GPx7"},
      {"measurement": "depressive symptoms", "setting": "[15]", "value": "improved depressive symptoms"},
      {"measurement": "reduction of likelihood of CVD", "setting": "[16]; otherwise healthy individuals", "value": 6, "unit": "%"},
      {"measurement": "reduction of likelihood of CVD", "setting": "[16]; those at high cardiovascular risk", "value": 48, "unit": "%"},
      {"measurement": "reduction of likelihood of CVD", "setting": "[16]; those at risk of frailty", "value": 18, "unit": "%"},
      {"measurement": "lifespan and health span", "setting": "[17]", "value": "extends both lifespan and health span"}
    ]},
    {"compound": "Oc1ccc(C=Cc2cc(O)cc(O)c2)cc1", "note": "[resveratrol]", "values": [
      {"measurement": "growth rate of leukaemia cells", "setting": "[18]", "value": "stop the growth rate of leukaemia cells"},
      {"measurement": "uptake of glutamate", "setting": "[19]", "value": "increase the uptake of glutamate"}
    ]},
    {"compound": "CC1=C(/C=C/C(C)=C/C=C/C(C)=C/C=C/C=C(C)/C=C/C=C(C)/C=C/C2=C(C)C(=O)[C@@H](O)CC2(C)C)C(C)(C)C[C@H](O)C1=O", "note": "[astaxanthin]", "values": [
      {"measurement": "DNA oxidative damage biomarker", "setting": "[20]", "value": "reduced the DNA oxidative damage biomarker"},
      {"measurement": "antitumor activity", "setting": "[21]", "value": "significant antitumor activity"},
      {"measurement": "insulin sensitivity", "setting": "[22]", "value": "Improved insulin sensitivity"},
      {"measurement": "age-related oxidative stress and inflammatory response", "setting": "[23]", "value": "prevented the accumulation of age-related oxidative stress and inflammatory response"},
      {"measurement": "anti-lipid peroxidation activity", "setting": "[24]", "value": 80, "unit": "%"},
      {"measurement": "urinary albumin level", "setting": "[25]", "value": "significantly lower than the control group"},
      {"measurement": "activity of natural killer cells", "setting": "[26]; eight week supplementation", "value": "improved activity of natural killer cells"},
      {"measurement": "blood levels of astaxanthin", "setting": "[26]; in vivo", "value": "increased blood levels of astaxanthin"},
      {"measurement": "heart mitochondrial membrane potential and contractility index", "setting": "[27]", "value": "higher heart mitochondrial membrane potential and contractility index"},
      {"measurement": "paraoxonase activity in serum", "setting": "[28]", "value": "inhibited"},
      {"measurement": "superoxide dismutase and thioredoxin reductase activity in serum", "setting": "[28]", "value": "enhanced activity of superoxide dismutase and thioredoxin reductase"}
    ]},
    {"compound": "COc1ccc2cc3[n+](cc2c1OC)CCc1cc2c(cc1-3)OCO2", "note": "[berberine]", "values": [
      {"measurement": "cholesterol excretion", "setting": "[29]", "value": "increases cholesterol excretion from the liver into the bile"},
      {"measurement": "adipocytes", "setting": "[30]", "value": "shrunk adipocytes"},
      {"measurement": "development of senescence", "setting": "[31]", "value": "significantly prevented the development of senescence"},
      {"measurement": "serum cholesterol, triglycerides and LDL-C", "setting": "[32]", "value": "reduced serum cholesterol, triglycerides and LDL-C"},
      {"measurement": "frequency and complexity of ventricular premature complexes", "setting": "[33]", "value": "decreased the frequency and complexity of ventricular premature complexes"},
      {"measurement": "left ventricular ejection fraction", "setting": "[33]", "value": "increased the left ventricular ejection fraction"},
      {"measurement": "cholesterol and triglyceride synthesis", "setting": "[34]", "value": "inhibit cholesterol and triglyceride synthesis"},
      {"measurement": "proliferation of MCF-7 breast cancer cells", "setting": "[35]", "value": "inhibits the proliferation"},
      {"measurement": "alanine and aspartate transaminase levels", "setting": "[36]", "value": "reduces alanine and aspartate transaminase levels"}
    ]}
  ]
}
